Results published in the supplement of paper PMC10307832.

What was measured:
Test in all cases: relative viability (nuclei count vs DMSO), 5 days (fraction); higher = more cells survive
RU-SKI 43 = compound: CC[C@@H](C)CNCC(=O)N1CCC2=C([C@@H]1COC3=CC=CC(=C3)C)C=CS2 [RU-SKI 43]
Outline: (§1)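 Cells of lung cancer lines were placed in 1536-well plates and kept overnight at 37 °C. Pinning then delivered five library-drug doses (not always all listed), spaced by √10, onto plates anchored with vehicle, and the cells were left 5 days without changing medium. One step fixed, permeabilised and stained them with Hoechst, and MetaXpress counted nuclei in 4× images. Viability, as a median over plates, is treated-well nuclei divided by vehicle-well nuclei, with acceptance only at control CV below 25% and at least one doubling.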

Irinotecan = compound: CCc1c2c(nc3ccc(OC(=O)N4CCC(N5CCCCC5)CC4)cc13)-c1cc3c(c(=O)n1C2)COC(=O)[C@]3(O)CC [Irinotecan]
Outline: as §1

MK-8033 = compound: Cn1cc(-c2cnc3ccc4ccc(CS(=O)(=O)NCc5ccccn5)cc4c(=O)c3c2)cn1 [MK-8033]
Outline: as §1

Irinotecan + Dasatinib = compound: CCc1c2c(nc3ccc(OC(=O)N4CCC(N5CCCCC5)CC4)cc13)-c1cc3c(c(=O)n1C2)COC(=O)[C@]3(O)CC [Irinotecan] + Cc1nc(Nc2ncc(C(=O)Nc3c(C)cccc3Cl)s2)cc(N2CCN(CCO)CC2)n1 [Dasatinib] (partner 0.075 µM)
Outline: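 A single step with final 0.05% Triton X-100, 1% formaldehyde and 1 ug/ml Hoechst fixed the cells and stained nuclei 5 days after treatment. Lung cancer cell lines in 1536-well plates had been treated by pin tool the day after seeding with one drug alone or a fixed anchor-drug dose plus five library-drug doses (not always all listed) in √10 steps, and nuclei were counted on 4× images. Relative viability is the ratio of nuclei in treated wells to nuclei in vehicle wells, taken as the median of duplicate plates.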

Cell Line	relative viability (RU-SKI 43; 0.1 µM)	relative viability (RU-SKI 43; 0.3162 µM)	relative viability (RU-SKI 43; 1 µM)	relative viability (RU-SKI 43; 3.162 µM)	relative viability (RU-SKI 43; 10 µM)	relative viability (Irinotecan; 0.6325 µM)	relative viability (Irinotecan; 2 µM)	relative viability (Irinotecan; 6.325 µM)	relative viability (Irinotecan; 20 µM)	relative viability (MK-8033; 0.02 µM)	relative viability (MK-8033; 0.06325 µM)	relative viability (MK-8033; 0.2 µM)	relative viability (MK-8033; 0.6325 µM)	relative viability (MK-8033; 2 µM)	relative viability (Irinotecan + Dasatinib; first compound 2 µM)	relative viability (Irinotecan + Dasatinib; first compound 6.325 µM)	relative viability (Irinotecan + Dasatinib; first compound 20 µM)	relative viability (Irinotecan + Dasatinib; first compound 0.6325 µM)
EBC-1	0.863	1.13	1.1	0.989	0.635	0.618	0.44	0.345	0.179	0.973	0.943	0.965	0.928	0.386	–	–	–	–
EKVX	0.873	0.971	0.977	0.994	0.965	0.711	0.804	0.504	0.261	0.993	0.858	0.906	0.935	1.03	0.457	0.387	0.3	–
EMC-BAC-2	1.04	0.983	1.28	0.97	0.971	0.562	0.616	0.328	0.231	1.13	0.904	0.916	1.03	0.947	0.324	0.215	0.304	0.292
EPLC-272H	1	0.905	1.07	0.857	0.915	0.419	0.665	0.282	0.243	0.923	0.745	0.85	0.991	0.76	0.296	0.15	0.265	0.146
H3255	1.02	0.995	1.11	0.995	0.885	0.743	0.684	0.392	0.379	1.06	0.853	0.942	0.794	0.942	0.292	0.358	0.387	0.443
HARA	1.06	0.959	1.05	1.06	0.84	0.612	0.618	0.308	0.245	0.97	0.769	0.87	0.806	0.944	0.188	0.114	0.121	0.109
HCC-15	1.07	1.09	1.11	1.11	0.993	0.444	0.684	0.241	0.182	1.05	0.968	0.86	1.02	0.999	0.523	0.196	0.123	–
HCC-44	1.05	0.972	1.09	0.933	0.969	0.718	0.915	0.409	0.331	1.05	1.02	0.949	1.01	0.957	–	–	–	–
HCC-78	1.01	0.961	1.2	0.944	0.911	0.8	0.686	0.24	0.326	0.959	0.895	0.863	0.982	0.926	0.384	0.214	0.24	0.394
